# Source: patent US9855270B2, “Methods and compositions for modulating estrogen receptor mutants” (priority 2014, dated 2018)
# Where two headings read alike, the source gives them in different places.
# Columns and labels:
# Assay type in all cases: cell-based
# [1] = system: MCF-7 cells (negative control); test: MCF-7 Stable Cell Line Viability (UbC HA-ER-α series); conditions: Receptor None (MCF-7 negative control); for EC50: Homo sapiens, MCF7, read-out: Potency (EC50; nM)
# Method in brief: (§1)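 MCF-7 lines stably expressing N-terminal HA-tagged ESR1 (wild-type or mutant) from EF1 (puromycin-selected) or UbC (hygromycin-selected) lentiviral vectors, or empty vector, were seeded in phenol-free RPMI with 10% CSS.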
# [2] = system: MCF-7 cells stably expressing UbC HA-ER-α wild-type; test: as above; conditions: UbC HA-ER-α Wild-type; for EC50: Homo sapiens, MCF7, read-out: Potency (EC50; nM); for Percent inhibition compared to vehicle: 5-Day Incubation; for Efficacy (Emax): Day 5 relative to Day 0
# Method in brief: (§2)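 MCF-7 lines stably expressing N-terminal HA-tagged wild-type or mutant ER-α, under a high-expressing EF1 or a low-to-moderate UbC promoter, plus an empty-vector control, grown in phenol-free RPMI with 10% CSS. Compound given at 10 μM to 5 pM final for 5 days. CellTiter-Glo luminescence minus background, divided by the time-zero reading, gave relative proliferation.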
# [3] = system: MCF-7 cells stably expressing EF1 HA-ER-α wild-type; test: MCF-7 Stable Cell Line Viability (EF1 HA-ER-α series); parameters: Percent inhibition compared to vehicle: concentration or dose not given beside the values; conditions: EF1 HA-ER-α Wild-type; for Percent inhibition compared to vehicle: 5-Day Incubation; for Efficacy (Emax): Day 5 relative to Day 0; for EC50: Homo sapiens, MCF7, read-out: Potency (EC50; nM)
# Method in brief: as §2
# [4] = system: MCF-7 cells transduced with an empty EF1 lentiviral vector (negative control); test: as above; parameters: Percent inhibition compared to vehicle: concentration or dose not given beside the values; conditions: for EC50: Homo sapiens, MCF7, Receptor None (empty EF1 lentiviral vector), read-out: Potency (EC50; nM); for Percent inhibition compared to vehicle / Efficacy (Emax): Receptor None (empty EF1 lentiviral vector); for Percent inhibition compared to vehicle: 5-Day Incubation; for Efficacy (Emax): Day 5 relative to Day 0
# Method in brief: as §2
# [5] = system: MCF-7 cells stably expressing EF1 HA-ER-α Y537N; test: cells; conditions: EF1 HA-ER-α Y537N; for Efficacy (Emax): Day 5 relative to Day 0; for EC50: Homo sapiens, MCF7, read-out: Potency (EC50; nM)
# Method in brief: as §2
# [6] = system: MCF-7 cells stably expressing EF1 HA-ER-α L536R; test: cells; conditions: EF1 HA-ER-α L536R; for Percent inhibition compared to vehicle: 5-Day Incubation; for Efficacy (Emax): Day 5 relative to Day 0; for EC50: Homo sapiens, MCF7, read-out: Potency (EC50; nM)
# Method in brief: as §2
# [7] = system: MCF-7 cells stably expressing EF1 HA-ER-α L536P; test: cells; conditions: EF1 HA-ER-α L536P; for Percent inhibition compared to vehicle: 5-Day Incubation; for Efficacy (Emax): Day 5 relative to Day 0; for EC50: Homo sapiens, MCF7, read-out: Potency (EC50; nM)
# Method in brief: as §2
# [8] = system: MCF-7 cells stably expressing UbC HA-ER-α L536P; test: cells; conditions: for EC50: Homo sapiens, MCF7, read-out: Potency (EC50; nM)
# Method in brief: as §1
# [9] = Agonist Mode, −E2, 5-Day Incubation
# [10] = Agonist Mode, −E2, Day 5 relative to Day 0
# [11] = Antagonist Mode, +E2, 5-Day Incubation
# [12] = Antagonist Mode, +E2, Day 5 relative to Day 0
# [13] = Antagonist Mode, −E2 (Table 27)
structure (smiles),measurement,setting,value
C[C@]12CC[C@@H]3c4ccc(O)cc4C[C@@H](CCCCCCCCC[S+]([O-])CCCC(F)(F)C(F)(F)F)[C@H]3[C@@H]1CC[C@@H]2O (stereo partly shown) [Fulvestrant],EC50,"[1]; Agonist Mode, −E2",0.05 ± 0.017 nM
same,EC50,"[1]; Antagonist Mode, +E2",0.327 ± 0.324 nM
same,Percent inhibition compared to vehicle,[1]; [9],28%
same,Efficacy (Emax),[1]; [10],1.27 ± 0.24
same,Percent inhibition compared to vehicle,[1]; [11],64%
same,Efficacy (Emax),[1]; [12],1.15 ± 0.01
same,EC50,"[2]; Agonist Mode, −E2",0.08 ± 0.042 nM
same,EC50,"[2]; Antagonist Mode, +E2",0.516 ± 0.479 nM
same,Percent inhibition compared to vehicle,"[2]; Agonist Mode, −E2",37%
same,Efficacy (Emax),"[2]; Agonist Mode, −E2",1.17 ± 0.13
same,Percent inhibition compared to vehicle,"[2]; Antagonist Mode, +E2",75%
same,Efficacy (Emax),"[2]; Antagonist Mode, +E2",1.23 ± 0.09
same,Percent inhibition compared to vehicle,"[3]; Agonist Mode, −E2",63%
same,Efficacy (Emax),"[3]; Agonist Mode, −E2",2.12 ± 0.23
same,Percent inhibition compared to vehicle,"[3]; Antagonist Mode, +E2",70%
same,Efficacy (Emax),"[3]; Antagonist Mode, +E2",2.04 ± 0.10
same,EC50,"[3]; Agonist Mode, −E2",0.895 ± 0.173 nM
same,EC50,"[3]; Antagonist Mode, +E2",3.97 ± 0.955 nM
same,EC50,[3]; [13],0.895 ± 0.173 nM
same,EC50,"[4]; Agonist Mode, −E2",0.178 ± 0.129 nM
same,EC50,"[4]; Antagonist Mode, +E2",1.44 ± 0.156 nM
same,EC50,[4]; [13],0.178 ± 0.129 nM
same,Percent inhibition compared to vehicle,"[4]; Agonist Mode, −E2",51%
same,Efficacy (Emax),"[4]; Agonist Mode, −E2",1.09 ± 0.16
same,Percent inhibition compared to vehicle,"[4]; Antagonist Mode, +E2",74%
same,Efficacy (Emax),"[4]; Antagonist Mode, +E2",1.04 ± 0.15
same,Efficacy (Emax),"[5]; Agonist Mode, −E2",0.52 ± 0.09
same,Percent inhibition compared to vehicle,[5]; [11],90%
same,Efficacy (Emax),"[5]; Antagonist Mode, +E2",0.56 ± 0.02
same,EC50,"[5]; Agonist Mode, −E2",9.26 ± 2.39 nM
same,EC50,"[5]; Antagonist Mode, +E2",12.4 ± 3.52 nM
same,EC50,[5]; [13],9.26 ± 2.39 nM
same,Percent inhibition compared to vehicle,"[6]; Agonist Mode, −E2",42%
same,Efficacy (Emax),"[6]; Agonist Mode, −E2",3.95 ± 0.36
same,Percent inhibition compared to vehicle,"[6]; Antagonist Mode, +E2",48%
same,Efficacy (Emax),"[6]; Antagonist Mode, +E2",3.53 ± 0.28
same,EC50,"[6]; Agonist Mode, −E2",6.29 ± 1.13 nM
same,EC50,"[6]; Antagonist Mode, +E2",35 ± 2.77 nM
same,EC50,[6]; [13],6.29 ± 1.13 nM
same,Percent inhibition compared to vehicle,"[7]; Agonist Mode, −E2",56%
same,Efficacy (Emax),"[7]; Agonist Mode, −E2",3.58 ± 0.10
same,Percent inhibition compared to vehicle,"[7]; Antagonist Mode, +E2",60%
same,Efficacy (Emax),"[7]; Antagonist Mode, +E2",3.65 ± 0.56
same,EC50,"[7]; Agonist Mode, −E2",4.51 ± 0.313 nM
same,EC50,"[7]; Antagonist Mode, +E2",16.4 ± 8.21 nM
same,EC50,[7]; [13],4.51 ± 0.313 nM
same,Percent inhibition compared to vehicle,[8]; [9],47%
same,Efficacy (Emax),[8]; [10],1.66 ± 0.11
same,Percent inhibition compared to vehicle,[8]; [11],71%
same,Efficacy (Emax),[8]; [12],1.73 ± 0.08
same,EC50,"[8]; Agonist Mode, −E2",0.298 ± 0.132 nM
same,EC50,"[8]; Antagonist Mode, +E2",2.59 ± 2.58 nM
